Literature values, collected in patent US9987252B2, “Primary amines and derivitves thereof as modulators of the 5-HT2A serotonin receptor useful for the treatment of disorders related thereto” (Arena Pharmaceuticals, Inc., priority 2006, dated 2018).

System: diabetic rats
Conditions: 19.8% sciatic motor conduction deficit in diabetic rats

Structure (SMILES)	correction of sciatic motor conduction deficit
O=CN1CCC(C(=O)NCCN2CCC(=C3c4ccccc4C=Cc4ccccc43)CC2)CC1 [AT-1015]	82.6-99.7%
Cc1nc2sccn2c(=O)c1CCN1CCC(=C(c2ccc(F)cc2)c2ccc(F)cc2)CC1 [ritanserin]	82.6-99.7%
COc1cccc(CCc2ccccc2OCC(CN(C)C)OC(=O)CCC(=O)O)c1 (stereo not drawn) [sarpogrelate]	82.6-99.7%
